From patent US11078222B2, “Hydroxybenzoic acid derivatives, methods and uses thereof” (UNiVERSIDADE DO PORTO, priority 2016, dated 2021)

Experiments:
[1] = Lipophilicity: transfer potential at ITIES (water/1,6-dichlorohexane) by DPV; format: physicochemical; settings: aqueous phase C=0.32 mM to 1,6-dichlorohexane, physiological pH
Method: In an embodiment, and as an example, the AntiOxBEN1 and AntiOxBEN2 lipophilic properties were evaluated using differential pulse voltammetry (DPV) at physiological pH. The used technique is often used to mimic the transfer of ionic drugs through biological membranes as the process occurs at the interface between two immiscible electrolyte solutions (ITIES). The transfer potential (Etr) at which the ionic drug, initially present in the aqueous phase (C=0.32 mM), is transferred to 1,6-dichlorohexane (DCH) phase is measured by differential pulse voltammetry (DPV). In the ITIES model, the transfer potential (Etr) becomes less positive with the increasing of the drug lipophilic character.
In an embodiment, the electrochemical analytical data was obtained using a computer controlled potentiostat Autolab PGSTAT302N (Metrohm Autolab, Utrecht, Netherlands). Generally, cyclic voltammetry (CV) data was acquired at a scan rate of 50 mVs^−1. Differential pulse voltammetry (DPV) results were acquired at a step potential of 4 mV, pulse amplitude of 50 mV and scan rate of 8 mVs^−1. The electrochemical signals were monitored by the General Purpose Electrochemical System (GPES) version 4.9, software package. […]

[2] = system: mitochondrial permeability transition pore (mPTP); assay: Mitochondrial swelling / mitochondrial permeability transition pore opening; format: biochemical, rat; settings: 2.5, 5, 10 μM pre-incubated 5 min before Ca2+
Method: In an embodiment, and as an example, the effects of some AntiOxBENs on mitochondrial permeability transition pore (mPTP) opening were evaluated. In general, the tested AntiOxBENs had no effect per se on mPTP opening for all tested concentrations.
Increasing concentrations of AntiOxBENs (2.5-10 μM) were added to the reaction medium (200 mM sucrose, 1 mM KH2PO4, 10 mM Tris (pH 7.4), 5 mM succinate and 10 μM EGTA supplemented with 1.5 μM rotenone), in the presence of RLM (1 mg), and allowed to incubate for a 5 min period before the assay. The experiments were initiated by the addition of a suitable concentration of Ca^2+ (15-50 μM), titrated every day. […] The reaction was stirred continuously and the temperature maintained at 37° C.

| SMILES | transfer potential (Etr) [1] | concentration-dependent inhibition of calcium-dependent mPTP opening [2] |
| --- | --- | --- |
| O=C(NCCCCCC[P+](c1ccccc1)(c1ccccc1)c1ccccc1)c1ccc(O)c(O)c1.[Br-] [AntiOxBEN1, 6-(3,4-dihydroxybenzamido)hexyltriphenylphosphonium bromide] | 0.405 V |  |
| O=C(NCCCCCC[P+](c1ccccc1)(c1ccccc1)c1ccccc1)c1cc(O)c(O)c(O)c1.[Br-] [AntiOxBEN2, 6-(3,4,5-trihydroxybenzamido)hexyltriphenylphosphonium bromide] | 0.495 V |  |
| O=C(CCCCC[P+](c1ccccc1)(c1ccccc1)c1ccccc1)NCCCCCCNC(=O)c1cc(O)c(O)c(O)c1.[Br-] [AntiOxBEN3, [5-(6-(3,4,5-trihydroxybenzamido)hexylamino)carbonylpentyl]triphenylphosphonium bromide] |  | caused a concentration-dependent inhibition |
